Source: the NIST ThermoML archive (doi:10.1016/j.jct.2005.03.006)
Numbers after ± are expanded uncertainties.

Settings: Liquid, Buoyancy - hydrostatic balance

Compound: CO [methanol]
- mass density (298.15 K, 100 kPa): 792.6 ± 10 kg/m3
- mass density (298.15 K, 5000 kPa): 796.2 ± 10 kg/m3
- mass density (298.15 K, 9900 kPa): 801 ± 10 kg/m3
- mass density (298.15 K, 19700 kPa): 808.4 ± 10 kg/m3
- mass density (298.15 K, 29500 kPa): 816 ± 10 kg/m3
- mass density (298.15 K, 39300 kPa): 823.8 ± 10 kg/m3
- mass density (298.15 K, 49100 kPa): 830 ± 10 kg/m3
- mass density (298.15 K, 58900 kPa): 836.3 ± 10 kg/m3
- mass density (323.15 K, 100 kPa): 770.3 ± 10 kg/m3
- mass density (323.15 K, 5000 kPa): 774.2 ± 10 kg/m3
- mass density (323.15 K, 9900 kPa): 778.2 ± 10 kg/m3
- mass density (323.15 K, 19700 kPa): 787 ± 10 kg/m3
- mass density (323.15 K, 29500 kPa): 795 ± 10 kg/m3
- mass density (323.15 K, 39300 kPa): 803.4 ± 10 kg/m3
- mass density (323.15 K, 49100 kPa): 811 ± 10 kg/m3
- mass density (323.15 K, 58900 kPa): 818.2 ± 10 kg/m3
- mass density (348.15 K, 5000 kPa): 748.9 ± 10 kg/m3
- mass density (348.15 K, 9900 kPa): 753.9 ± 10 kg/m3
- mass density (348.15 K, 19700 kPa): 764.1 ± 10 kg/m3
- mass density (348.15 K, 29500 kPa): 773.1 ± 10 kg/m3
- mass density (348.15 K, 39300 kPa): 782.6 ± 10 kg/m3
- mass density (348.15 K, 49100 kPa): 790.9 ± 10 kg/m3
- mass density (348.15 K, 58900 kPa): 798.9 ± 10 kg/m3
- mass density (373.15 K, 5000 kPa): 721.1 ± 10 kg/m3
- mass density (373.15 K, 9900 kPa): 727.7 ± 10 kg/m3
- mass density (373.15 K, 19700 kPa): 739.3 ± 10 kg/m3
- mass density (373.15 K, 29500 kPa): 750.4 ± 10 kg/m3
- mass density (373.15 K, 39300 kPa): 760.2 ± 10 kg/m3
- mass density (373.15 K, 49100 kPa): 769.6 ± 10 kg/m3
- mass density (373.15 K, 58900 kPa): 778.2 ± 10 kg/m3
- mass density (398.15 K, 5000 kPa): 690 ± 10 kg/m3
- mass density (398.15 K, 9900 kPa): 697.6 ± 10 kg/m3
- mass density (398.15 K, 19700 kPa): 712.8 ± 10 kg/m3
- mass density (398.15 K, 29500 kPa): 725.4 ± 10 kg/m3
- mass density (398.15 K, 39300 kPa): 736 ± 10 kg/m3
- mass density (398.15 K, 49100 kPa): 747.2 ± 10 kg/m3
- mass density (398.15 K, 58900 kPa): 757 ± 10 kg/m3
- mass density (423.15 K, 5000 kPa): 652.8 ± 10 kg/m3
- mass density (423.15 K, 9900 kPa): 665.2 ± 10 kg/m3
- mass density (423.15 K, 19700 kPa): 683.6 ± 10 kg/m3
- mass density (423.15 K, 29500 kPa): 698.8 ± 10 kg/m3
- mass density (423.15 K, 39300 kPa): 710.8 ± 10 kg/m3
- mass density (423.15 K, 49100 kPa): 723.9 ± 10 kg/m3
- mass density (423.15 K, 58900 kPa): 735 ± 10 kg/m3
- mass density (448.15 K, 5000 kPa): 610.4 ± 10 kg/m3
- mass density (448.15 K, 9900 kPa): 628.9 ± 10 kg/m3
- mass density (448.15 K, 19700 kPa): 652.4 ± 10 kg/m3
- mass density (448.15 K, 29500 kPa): 670.8 ± 10 kg/m3
- mass density (448.15 K, 39300 kPa): 685.6 ± 10 kg/m3
- mass density (448.15 K, 49100 kPa): 700 ± 10 kg/m3
- mass density (448.15 K, 58900 kPa): 713 ± 10 kg/m3
- mass density (473.15 K, 5000 kPa): 553.4 ± 10 kg/m3
- mass density (473.15 K, 9900 kPa): 585 ± 10 kg/m3
- mass density (473.15 K, 19700 kPa): 620.2 ± 10 kg/m3
- mass density (473.15 K, 29500 kPa): 642 ± 10 kg/m3
- mass density (473.15 K, 39300 kPa): 660.6 ± 10 kg/m3
- mass density (473.15 K, 49100 kPa): 677.2 ± 10 kg/m3
- mass density (473.15 K, 58900 kPa): 691.2 ± 10 kg/m3
- mass density (498.15 K, 9900 kPa): 525 ± 10 kg/m3
- mass density (498.15 K, 19700 kPa): 584.8 ± 10 kg/m3
- mass density (498.15 K, 29500 kPa): 613.4 ± 10 kg/m3
- mass density (498.15 K, 39300 kPa): 636 ± 10 kg/m3
- mass density (498.15 K, 49100 kPa): 655 ± 10 kg/m3
- mass density (498.15 K, 58900 kPa): 670 ± 10 kg/m3

Compound: CCc1ccccc1 [ethylbenzene]
- mass density (292.25 K, 100 kPa): 867 ± 10 kg/m3
- mass density (292.25 K, 5000 kPa): 870.8 ± 10 kg/m3
- mass density (292.25 K, 9900 kPa): 874 ± 10 kg/m3
- mass density (292.25 K, 19700 kPa): 881.3 ± 10 kg/m3
- mass density (292.25 K, 29500 kPa): 887.1 ± 10 kg/m3
- mass density (292.25 K, 39300 kPa): 893 ± 10 kg/m3
- mass density (292.25 K, 49100 kPa): 898.5 ± 10 kg/m3
- mass density (292.25 K, 58900 kPa): 903.8 ± 10 kg/m3
- mass density (313.45 K, 100 kPa): 849.1 ± 10 kg/m3
- mass density (313.45 K, 5000 kPa): 853.1 ± 10 kg/m3
- mass density (313.45 K, 19700 kPa): 864.4 ± 10 kg/m3
- mass density (313.45 K, 29500 kPa): 871.4 ± 10 kg/m3
- mass density (313.45 K, 39300 kPa): 877.6 ± 10 kg/m3
- mass density (313.45 K, 49100 kPa): 883.6 ± 10 kg/m3
- mass density (313.45 K, 58900 kPa): 889.4 ± 10 kg/m3
- mass density (336.55 K, 100 kPa): 828.7 ± 10 kg/m3
- mass density (336.55 K, 5000 kPa): 833.6 ± 10 kg/m3
- mass density (336.55 K, 9900 kPa): 838.5 ± 10 kg/m3
- mass density (336.55 K, 19700 kPa): 845.8 ± 10 kg/m3
- mass density (336.55 K, 29500 kPa): 854 ± 10 kg/m3
- mass density (336.55 K, 39300 kPa): 860.9 ± 10 kg/m3
- mass density (336.55 K, 49100 kPa): 867.8 ± 10 kg/m3
- mass density (336.55 K, 58900 kPa): 873.6 ± 10 kg/m3
- mass density (358.81 K, 100 kPa): 808.4 ± 10 kg/m3
- mass density (358.81 K, 5000 kPa): 814.5 ± 10 kg/m3
- mass density (358.81 K, 9900 kPa): 820 ± 10 kg/m3
- mass density (358.81 K, 19700 kPa): 827.6 ± 10 kg/m3
- mass density (358.81 K, 29500 kPa): 836.8 ± 10 kg/m3
- mass density (358.81 K, 39300 kPa): 844.8 ± 10 kg/m3
- mass density (358.81 K, 49100 kPa): 852.4 ± 10 kg/m3
- mass density (358.81 K, 58900 kPa): 858.6 ± 10 kg/m3
- mass density (382.95 K, 5000 kPa): 793 ± 10 kg/m3
- mass density (382.95 K, 9900 kPa): 799 ± 10 kg/m3
- mass density (382.95 K, 19700 kPa): 808.1 ± 10 kg/m3
- mass density (382.95 K, 29500 kPa): 818.2 ± 10 kg/m3
- mass density (382.95 K, 39300 kPa): 827.1 ± 10 kg/m3
- mass density (382.95 K, 49100 kPa): 835.1 ± 10 kg/m3
- mass density (382.95 K, 58900 kPa): 842.5 ± 10 kg/m3
- mass density (408.05 K, 5000 kPa): 770.4 ± 10 kg/m3
- mass density (408.05 K, 9900 kPa): 777.3 ± 10 kg/m3
- mass density (408.05 K, 19700 kPa): 788.5 ± 10 kg/m3
- mass density (408.05 K, 29500 kPa): 799.7 ± 10 kg/m3
- mass density (408.05 K, 39300 kPa): 809.5 ± 10 kg/m3
- mass density (408.05 K, 49100 kPa): 817.9 ± 10 kg/m3
- mass density (408.05 K, 58900 kPa): 826 ± 10 kg/m3
- mass density (434.45 K, 5000 kPa): 746 ± 10 kg/m3
- mass density (434.45 K, 9900 kPa): 754.4 ± 10 kg/m3
- mass density (434.45 K, 19700 kPa): 768.1 ± 10 kg/m3
- mass density (434.45 K, 29500 kPa): 780.5 ± 10 kg/m3
- mass density (434.45 K, 39300 kPa): 791 ± 10 kg/m3
- mass density (434.45 K, 49100 kPa): 800.4 ± 10 kg/m3
- mass density (434.45 K, 58900 kPa): 808.6 ± 10 kg/m3
- mass density (461.85 K, 5000 kPa): 718.6 ± 10 kg/m3
- mass density (461.85 K, 9900 kPa): 728.8 ± 10 kg/m3
- mass density (461.85 K, 19700 kPa): 746.2 ± 10 kg/m3
- mass density (461.85 K, 29500 kPa): 760 ± 10 kg/m3
- mass density (461.85 K, 39300 kPa): 771.7 ± 10 kg/m3
- mass density (461.85 K, 49100 kPa): 782.3 ± 10 kg/m3
- mass density (461.85 K, 58900 kPa): 791 ± 10 kg/m3
- mass density (490.15 K, 5000 kPa): 687 ± 10 kg/m3
- mass density (490.15 K, 9900 kPa): 700 ± 10 kg/m3
- mass density (490.15 K, 19700 kPa): 720.9 ± 10 kg/m3
- mass density (490.15 K, 29500 kPa): 737.2 ± 10 kg/m3
- mass density (490.15 K, 39300 kPa): 750.7 ± 10 kg/m3
- mass density (490.15 K, 49100 kPa): 762.9 ± 10 kg/m3
- mass density (490.15 K, 58900 kPa): 773.2 ± 10 kg/m3
